Patent US20130324413A1, “METHOD FOR PROMOTING PLANT GROWTH” (SUMITOMO CHEMICAL COMPANY, LIMITED, priority 2011, published 2013)

What was measured:
Assay type in all cases: in vivo
[1] = system: Corn (cultivar: DeKalb 61-69); assay: Test Example 4: field corn foliage spraying, percentage of green leaves; conditions: assessed 143 days after sowing (R6), non-treated 23.8%
Text: Corn seeds (cultivar: DeKalb 61-69) were sown at 33,684 seeds per acre and grown. Each plot in the field for treatment measured 10 feet in width and 15.5 feet in length. The treatments were arranged using the Randomized Complete Block Design method with eight replications for each treatment. Groups treated with the formulation without compound (1b) were used as the non-treated groups, in which corn was cultivated in the same manner as in the present compound-treated groups. The flowable formulation prepared as described in Formulation Example 2 was applied by foliage spraying 111 days after the sowing, at developmental stage R3 of maize. The percentage of green leaves among the leaves upper to the lowest ear of corn was determined for each formulation-treated group 143 days after the sowing, at developmental stage R6 of maize. As a result, the percentages were 41.3% and 45.6% on average, respectively, in the groups treated with 100 g and 300 g per hectare of compound (1b), while the percentage was 23.8% on average in the non-treated groups.

[2] = system: corn seeds (cultivar: Kuromochi); assay: Test Example 6: corn seed coating, low-temperature stress, fresh weight of above-ground part; conditions: for Average fresh weight of above-ground part: low-temperature stress 3±2° C. 7 days, non-treated 1.18 g
Method: A blank slurry solution containing 5% (V/V) color coat red (Becker Underwood, Inc.), 5% (V/V) CF-Clear (Becker Underwood, Inc.) and 0.4% Maxim XL (Syngenta) was prepared. […] In a 50-ml centrifuge tube (manufactured by BD Japan), 0.48 ml of the slurry solution was placed for each 20 g of corn seeds (cultivar: Kuromochi) and stirred until the solution was dried, thereby coating the seeds. As a control, seeds were coated with the blank slurry solution and used for a non-treated group. Two treated corn seeds were sown in the culture soil (AISAI) in each plastic pot (55 mm in diameter×58 mm in height) and grown for 4 days under the following conditions: temperature, 27° C.; illuminance, 5,000 lux; day length, 16 hours. These were subjected to the test. The pots at day 4 after the sowing were placed in a phytotron under the following conditions in order to expose the plants to low-temperature stress for 7 days. Conditions: “temperature, 3±2° C.; day length, 16 hours; illuminance, about 5,000 lux; humidity, 35 to 80%” The plants were grown for another 7 days under the following conditions: temperature, 27° C.; humidity, 50 to 75%, illuminance, about 5,000 lux; day length, 16 hours. Then the fresh weight of the above-ground part of the plants was measured. The experiment was performed in four replications for each treatment condition and the average weight per individual was calculated.

[3] = system: Corn (cultivar: PIONEER 31N27); assay: Test Example 8: corn seedling spraying, low-temperature stress, fresh weight of above-ground part; conditions: for Average fresh weight of above-ground part: low-temperature stress 2±2° C. 5 days, non-treated 0.79 g
Method: Corn seeds (cultivar: PIONEER 31N27) were sown in the culture soil (AISAI) in plastic pots (55 mm in diameter×58 mm in height) and grown for a week under the following conditions to obtain corn seedlings: temperature, 20 to 25° C.; humidity, 50 to 75%; illuminance, about 5,000 lux; day length, 16 hours.
A flowable formulation of the compound (1b) was obtained by adding 120 mg of a mixture of white carbon and a polyoxyethylene alkyl ether sulfate ammonium salt (weight ratio of 1:1) and 300 μl of water to 0.5 mg of compound (1b), followed by fine grinding by a wet grinding method. This flowable formulation was diluted with 50 ml of water, to which RINO (manufactured by NIHON NOHYAKU) was added as a sticker to 5,000-fold dilution, whereby a spray solution was obtained. A sufficient amount of the spray solution was applied to the corn seedlings by using an automatic spraying machine. As a control, a flowable formulation without compound (1b) was prepared and then sprayed to the non-treated group.
Subsequently, the corn seedlings treated with the spray solution were placed in a phytotron under the following conditions in order to expose the plants to low-temperature stress for 5 days. • Conditions: “temperature, 2±2° C.; lighting hour, 16 hours; • illuminance, about 5,000 lux; humidity, 35 to 80%”
The plants were then grown for another 4 days under the following conditions: temperature, 25 to 28° C.; humidity, 50 to 75%, illuminance, about 5,000 lux; day length, 16 hours. Then the fresh weight of the above-ground part of the plants was measured. The experiment was performed in four replications for each treatment condition and the average weight per individual was calculated.

[4] = system: oilseed rape (Brasicca napus); assay: Test Example 11: oilseed rape field application, yield of the seeds; conditions: flowable formulation, 250 g per hectare at day 240 (BBCH 63); evaluated day 334; non-treated 4.25 tons/hectare
Text: Seeds of oilseed rape (Brasicca napus) were sown at 5.5 kg seeds per hectare and grown. At day 240 after the sowing, at growth stage 63, according to the Biologische Bundesanstalt, Bundessortenamt and CHemical industry (BBCH) scale, the flowable formulation prepared as described in Formulation Example 2 containing compound (1b) was applied in an amount of 250 g per hectare. A group for the treatment measured 2 m×12 m. This group was the present compound-treated group. A group treated with the formulation without compound (1b) was used as the non-treated group, in which plants were cultivated in the same manner as in the treated group.
At day 334 after the sowing, the yield of the seeds was evaluated. As a result, the yield calculated presuming 9% seed water content was 4.55 tons/hectare in the present compound-treated group, while it was 4.25 tons/hectare in the non-treated group. During the testing, no diseases were observed that affected the yield either in the present compound-treated or non-treated group.

## CNC(=O)C(OC)c1ccccc1COc1cc(C)ccc1C (racemic) [Compound (1b), N-methyl-2-[2-(2,5-dimethylphenoxy)methyl]phenyl-2-methoxyacetamide]
[1]; foliage spraying 100 g per hectare at 111 days (R3)
  percentage of green leaves among the leaves upper to the lowest ear (average): 41.3%
[1]; foliage spraying 300 g per hectare at 111 days (R3)
  percentage of green leaves among the leaves upper to the lowest ear (average): 45.6%
[2]; seed coating 10 g
  Average fresh weight of above-ground part: 1.33 g
[2]; seed coating 25 g
  Average fresh weight of above-ground part: 1.30 g
[2]; seed coating 50 g
  Average fresh weight of above-ground part: 1.29 g
[2]; seed coating
  Average fresh weight of above-ground part: 1.34 g
[2]; plants exposed to low-temperature stress, 10 g to 50 g per 100 kg of seeds
  fresh weight of the above-ground part as compared with the control group: an increase
[3]; plants exposed to low-temperature stress, concentration range of 10 ppm to 100 ppm
  fresh weight of the above-ground part as compared with the non-treated group: increased
[3]; spray 10 ppm
  Average fresh weight of above-ground part: 0.89 g
[3]; spray 30 ppm
  Average fresh weight of above-ground part: 0.94 g
[3]; spray 100 ppm
  Average fresh weight of above-ground part: 0.90 g
[4]
  yield of the seeds calculated presuming 9% seed water content: 4.55 tons/hectare
